Source: patent publication US20220047494A1, “ANTIBACTERIAL, DEODORIZATION, EASING OF ACNE AND ATOPY OR SKIN CALMING-FUNCTIONAL COMPOSITION FOR Y-ZONE CLEANLINESS CONTAINING QUERCUS ACUTISSIMA SAP AND ZINC RICINOLEATE” (MEDICLASSIC.CO.LTD, priority 2020, published 2022)

System: Staphylococcus epidermidis (KTTC12228)
Test: Paper disk diffusion antibacterial activity
Assay type: cell-based
Settings: paper disk 8 mm, mean ± SD (n = 3)
Source text: In Experimental Example according to the present invention, Propionibacterium acnes (KCTC3314), which is an acne-causing pathogen, Candida albicans (ATCC 10231), which is a yeast that causes inflammatory or bacterial skin diseases, and Staphylococcus epidermidis (KTTC12228), which is gram-positive skin flora, were used. Propionibacterium acnes (KCTC3314) was inoculated into reinforced clostridial (RC) medium, sealed using a […] system in an anaerobic culture tank, and then anaerobically cultured at 37° C. for two days. As an aerobic strain of Candida albicans (ATCC 10231), Sabaurd Dextrose Agar (Difco. USA) was used, inoculated with the bacteria, and cultured in an incubator at 25° C. for 24 hours. As an aerobic strain, Staphylococcus epidermidis (KTTC12228) was inoculated into Mueller-Hinton medium and cultured at 37° C. for 24 hours before use. With respect to the ingredients according to Preparation Example and Comparative Preparation Example, an antibacterial activity against Staphylococcus epidermidis (KTC12228) was measured by using a paper disk diffusion method. Specifically, the evaluation of antibacterial activity against Staphylococcus epidermidis (KTTC12228), which is a secondary acne-causing pathogen, was performed by carrying out a cultivation with Muller-Hinton medium at 37° C. for 24 hours, and evenly spreading a bacterial suspension adjusted at a constant concentration (absorbance of 0.5 at an optical density of 620 nm) on an RC agar plate using a sterile cotton swab. After that, the plate was dried and a paper disk (Φ 8 mm, […]. USA) was placed on the surface of the plate inoculated with the strain, after which samples according to Preparation Example 2 and Comparative Preparation Examples 1 to 4, the positive control tetracycline and a mixed sample of Preparation Examples 1 and 2 (6:4) were absorbed thereon for each concentration. The sample-treated plate was cultured in an anaerobic culture tank for three days using the […] system, after which the antibacterial activity was measured by the size of the inhibition zone around the disk, and the results thereof are shown in table 2 below, respectively.

## CN(C)[C@@H]1C(O)=C(C(N)=O)C(=O)[C@@]2(O)C(O)=C3C(=O)c4c(O)cccc4[C@@](C)(O)[C@H]3C[C@@H]12 [Tetracycline, tetracycline]
Staphylococcus epidermidis, concentration 1 mg, read-out: Zone of inhibition (diameter in mm)
  zone of inhibition at 1000 µg/disc: ~12 mm
Staphylococcus epidermidis, concentration 5 mg, read-out: Zone of inhibition (diameter in mm)
  zone of inhibition at 5000 µg/disc: ~14 mm
Concentration 1 mg
  Zone of inhibition (diameter in mm): 12.82 ± 0.43 mm
Concentration 5 mg
  Zone of inhibition (diameter in mm): 14.92 ± 0.23 mm
